Columns and labels:
[1] = system: bovine liver β-galactosidase; experiment: Glycosidase inhibition, laboratory 1: bovine liver β-galactosidase; assay type: biochemical; conditions: methanol
Source text: (§1) The enzymes α-glucosidase (from yeast), β-glucosidases (from almond and bovine liver), α-galactosidase (from coffee beans), β-galactosidase (from bovine liver), α-mannosidase (from Jack bean), β-mannosidase (from snail), α-L-rhamnosidase (from Penicillium decumbens), α-L-fucosidase (from bovine kidney), trehalase (from porcine kidney), β-glucuronidases (from E. coli and bovine liver), amyloglucosidase (from A. niger), para-nitrophenyl glycosides, and various disaccharides were purchased from Sigma-Aldrich Co (St Louis, MO, USA).
(§2) Brush border membranes were prepared from the rat small intestine according to the method of Kessler et al. and were assayed at pH 6.8 for rat intestinal maltase using maltose. For rat intestinal maltase, porcine kidney trehalase, and A. niger amyloglucosidase activities, the reaction mixture contained 25 mM maltose and the appropriate amount of enzyme, and the incubations were performed for 10–30 min at 37 °C. The reaction was stopped by heating at 100 °C for 3 min. After centrifugation (600× g; 10 min), the resulting reaction mixture was added to the Glucose CII-test Wako (Wako Pure Chemical Ind., Osaka, Japan). The absorbance at 505 nm was measured to determine the amount of the released D-glucose. Other glycosidase activities were determined using an appropriate para-nitrophenyl glycoside as substrate at the optimum pH of each enzyme. The reaction mixture contained 2 mM of the substrate and the appropriate amount of enzyme. The reaction was stopped by addition of 400 mM Na2CO3. The released para-nitrophenol was measured spectrometrically at 400 nm. All reactions run in methanol.

[2] = biological target: T1, bovine kidney α-L-fucosidase (Bos taurus, UniProt Q2KIM0); experiment: Glycosidase inhibition, laboratory 1: α-L-fucosidase; assay type: biochemical; conditions: methanol
T1 construct: purchased Sigma-Aldrich Co
T1 sequence (Q2KIM0 23-468): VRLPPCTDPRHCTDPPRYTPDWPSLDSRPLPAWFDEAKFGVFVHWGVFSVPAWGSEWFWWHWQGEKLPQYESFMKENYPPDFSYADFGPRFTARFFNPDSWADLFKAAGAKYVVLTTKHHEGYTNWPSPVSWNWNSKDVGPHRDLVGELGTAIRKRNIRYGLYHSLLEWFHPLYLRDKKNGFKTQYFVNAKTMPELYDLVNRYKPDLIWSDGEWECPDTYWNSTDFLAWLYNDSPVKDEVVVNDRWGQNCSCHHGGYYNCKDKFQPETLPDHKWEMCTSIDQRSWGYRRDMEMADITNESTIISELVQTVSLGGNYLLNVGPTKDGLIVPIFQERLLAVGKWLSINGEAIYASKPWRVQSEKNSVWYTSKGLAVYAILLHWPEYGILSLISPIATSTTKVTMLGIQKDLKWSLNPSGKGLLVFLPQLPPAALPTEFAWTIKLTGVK
Source text: as §1, §2

[3] = system: bovine liver β-glucuronidase; experiment: Glycosidase inhibition, laboratory 1: bovine liver β-glucuronidase; assay type: biochemical; conditions: methanol
Source text: as §1, §2

[4] = biological target: T2, A. niger amyloglucosidase (Aspergillus niger, UniProt P69328); experiment: Glycosidase inhibition, laboratory 1: amyloglucosidase; assay type: biochemical; conditions: A. niger amyloglucosidase, methanol
T2 construct: purchased Sigma-Aldrich Co
Source text: as §1, §2

almond β-glucosidase = experiment: Glycosidase inhibition, laboratory 2: almond β-glucosidase; assay type: biochemical; conditions: water
Description: All enzymes and para-nitrophenyl substrates were purchased from Sigma. Enzymes were assayed at 27 °C in 0.1 M citric acid/0.2 M disodium hydrogen phosphate buffers at the optimum pH for the enzyme. The incubation mixture consisted of 10 μL enzyme solution, 10 μL of 1 mg/mL aqueous solution of extract and 50 μL of the appropriate 5 mM para-nitrophenyl substrate made up in buffer at the optimum pH for the enzyme. The reactions were stopped by addition of 70 μL 0.4 M glycine (pH 10.4) during the exponential phase of the reaction, which had been determined at the beginning using uninhibited assays in which water replaced inhibitor. Final absorbances were read at 405 nm using a Versamax microplate reader (Molecular Devices). Assays were carried out in triplicate, and the values given are means of the three replicates per assay. All reactions run in water.

U87 = experiment: MTT cell growth inhibition: U87; assay type: cell-based; conditions: U87 glioblastoma, 25 µM, 72 h, MTT
Description: (§3) All test agents were prepared as stock solutions (20 mM) in dimethyl sulfoxide (DMSO) and stored at −20 °C. Cell lines used in the study included HT29 (colorectal carcinoma); U87, SJ-G2, (glioblastoma); MCF-7, (breast carcinoma); A2780 (ovarian carcinoma); H460 (lung carcinoma); A431 (skin carcinoma); Du145 (prostate carcinoma); BE2-C (neuroblastoma); MiaPaCa-2 (pancreatic carcinoma); and SMA560 (spontaneous murine astrocytoma), together with the one non-tumour-derived normal breast cell line (MCF10A). All cell lines were incubated in a humidified atmosphere 5% CO2 at 37 °C. The cancer cell lines were maintained in Dulbecco’s modified Eagle’s medium (DMEM; Sigma, Australia) supplemented with foetal bovine serum (10%), sodium pyruvate (10 mM), penicillin (100 IUmL^−1), streptomycin (100 µg mL^−1) and L-glutamine (2 mM).
(§4) Growth inhibition was determined by plating cells in duplicate in medium (100 µL) at a density of 2500–4000 cells per well in 96-well plates. On day 0 (24 h after plating), when the cells were in logarithmic growth, medium (100 µL) with or without the test agent was added to each well. After 72 h drug exposure, growth inhibitory effects were evaluated using the MTT (3-(4,5-dimethyltiazol-2-yl)-2,5-diphenyltetrazolium bromide) assay and absorbance read at 540 nm. The percentage growth inhibition was calculated at a fixed concentration of 25 µM, based on the difference between the optical density values on day 0 and those at the end of drug exposure. Each data point is the mean ± the standard error of the mean (SEM) calculated from three replicates which were performed on separate occasions and separate cell line passages.

MCF-7 = experiment: MTT cell growth inhibition: MCF-7; assay type: cell-based; conditions: MCF-7 breast carcinoma, 25 µM, 72 h, MTT
Description: as §3, §4

A2780 = experiment: MTT cell growth inhibition: A2780; assay type: cell-based; conditions: A2780 ovarian carcinoma, 25 µM, 72 h, MTT
Description: as §3, §4

H460 = experiment: MTT cell growth inhibition: H460; assay type: cell-based; conditions: H460 lung carcinoma, 25 µM, 72 h, MTT
Description: as §3, §4

Du145 = experiment: MTT cell growth inhibition: Du145; assay type: cell-based; conditions: 72 h; for Percentage (%) Cell Growth Inhibition in response to 25 µM of Drug: Du145 prostate carcinoma
Description: as §3, §4

SJ-G2 = experiment: MTT cell growth inhibition: SJ-G2; assay type: cell-based; conditions: SJ-G2 glioblastoma, 72 h
Description: as §3, §4

T2 sequence (P69328 25-640): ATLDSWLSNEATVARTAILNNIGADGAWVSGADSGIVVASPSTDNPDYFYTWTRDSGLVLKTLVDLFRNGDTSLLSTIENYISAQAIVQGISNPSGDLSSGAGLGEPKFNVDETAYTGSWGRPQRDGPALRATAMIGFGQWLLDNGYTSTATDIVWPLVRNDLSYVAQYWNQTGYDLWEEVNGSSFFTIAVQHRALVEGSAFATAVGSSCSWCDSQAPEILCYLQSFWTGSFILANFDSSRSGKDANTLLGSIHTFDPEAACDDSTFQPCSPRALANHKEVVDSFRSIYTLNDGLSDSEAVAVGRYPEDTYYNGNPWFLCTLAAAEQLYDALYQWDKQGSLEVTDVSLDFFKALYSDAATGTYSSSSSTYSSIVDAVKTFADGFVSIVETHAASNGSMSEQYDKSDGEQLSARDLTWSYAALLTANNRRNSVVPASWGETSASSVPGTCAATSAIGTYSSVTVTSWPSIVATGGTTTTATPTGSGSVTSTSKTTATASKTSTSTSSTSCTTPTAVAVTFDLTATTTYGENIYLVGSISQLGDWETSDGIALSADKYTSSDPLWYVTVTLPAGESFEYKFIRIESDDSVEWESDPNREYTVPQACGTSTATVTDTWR

Compound: N[C@@H](Cc1ccc(B(O)O)cc1)C(=O)O [^10B-BPA, reference compound]
- inhibition % at 100 μM ([1]; 100 μM): ^cNI ^d (0%)
- inhibition % at 100 μM ([2]; 100 μM): ^cNI ^d (0%)
- inhibition % at 100 μM [3]: ^cNI ^d (0%)
- inhibition % at 100 μM ([4]; 100 μM): ^cNI ^d (0%)
- % inhibition at ~400 μM (almond β-glucosidase; 400 µM): 3%
- Percentage (%) Cell Growth Inhibition in response to 25 µM of Drug (U87): <0%
- Percentage (%) Cell Growth Inhibition in response to 25 µM of Drug (MCF-7): 1 ± 3%
- Percentage (%) Cell Growth Inhibition in response to 25 µM of Drug (A2780): 8 ± 4%
- Percentage (%) Cell Growth Inhibition in response to 25 µM of Drug (H460): 8 ± 5%
- Percentage (%) Cell Growth Inhibition in response to 25 µM of Drug (Du145): 15 ± 9%
- Percentage (%) Cell Growth Inhibition in response to 25 µM of Drug (SJ-G2): 5 ± 10%

Compound: Borocaptate sodium [BSH, reference compound]
- inhibition % at 1000 μM ([1]; 1000 μM): ^aNI ^b (0%)
- inhibition % at 1000 μM ([2]; 1000 μM): ^aNI ^b (0%)
- inhibition % at 1000 μM ([3]; 1000 μM): ^aNI ^b (19.6%)
- inhibition % at 1000 μM ([4]; 1000 μM): ^aNI ^b (0%)
- % inhibition at ~400 μM (almond β-glucosidase): 47.3%
- Percentage (%) Cell Growth Inhibition in response to 25 µM of Drug (U87): <0%
- Percentage (%) Cell Growth Inhibition in response to 25 µM of Drug (MCF-7): 15 ± 3%
- Percentage (%) Cell Growth Inhibition in response to 25 µM of Drug (A2780): 2 ± 5%
- Percentage (%) Cell Growth Inhibition in response to 25 µM of Drug (H460): 8 ± 2%
- Percentage (%) Cell Growth Inhibition in response to 25 µM of Drug (Du145): 0 ± 8%
- Percentage (%) Cell Growth Inhibition in response to 25 µM of Drug (SJ-G2): 3 ± 8%

Compound: CC1(C)OB(c2ccc(NC(=O)c3cc(Cl)c(Cl)c(Cl)c3Cl)cc2)OC1(C)C [para 5, 2,3,4,5-tetrachloro-N-(4-(4,4,5,5-tetramethyl-1,3,2-dioxaborolan-2-yl)phenyl)benzamide]
- IC50 [1]: 333 µM
- inhibition at 100 µM ([2]; 100 μM): 5.1%
- inhibition % at 100 μM [3]: ^aNI ^b (36.5%)
- inhibition at 100 µM ([4]; 100 μM, read-out: inhibition % at 100 μM): 0%
- % inhibition at ~400 μM (almond β-glucosidase): 11.3%
- inhibition at 25 µM (U87; Homo sapiens, U-87 MG, read-out: Percentage (%) Cell Growth Inhibition in response to 25 µM of Drug): 21 ± 16%
- inhibition at 25 µM (MCF-7; Homo sapiens, MCF7, read-out: Percentage (%) Cell Growth Inhibition in response to 25 µM of Drug): 42 ± 5%
- inhibition at 25 µM (A2780; Homo sapiens, read-out: Percentage (%) Cell Growth Inhibition in response to 25 µM of Drug): 50 ± 1%
- inhibition at 25 µM (H460; Homo sapiens, NCI-H460, read-out: Percentage (%) Cell Growth Inhibition in response to 25 µM of Drug): 54 ± 2%
- inhibition at 25 µM (Du145; Homo sapiens, DU-145, Du145 prostate carcinoma, read-out: Percentage (%) Cell Growth Inhibition in response to 25 µM of Drug): 1 ± 13%
- inhibition at 25 µM (SJ-G2; read-out: Percentage (%) Cell Growth Inhibition in response to 25 µM of Drug): 28 ± 6%

— paper PMC9182199, “Borylated 2,3,4,5-Tetrachlorophthalimide and Their 2,3,4,5-Tetrachlorobenzamide Analogues: Synthesis, Their Glycosidase Inhibition and Anticancer Properties in View to Boron Neutron Capture Therapy” (Molecules, 2022)
